These results are taken from PubChem BioAssay AID1996.

By kinetic solubility is commonly meant the concentration staying in solution when a stock, usually in DMSO, is diluted into the medium.

SMILES strings stand for the structures. Converted amounts (≈) assume the structure as drawn.

For this data set the following is noted: buffer; pH 7.4; 200.0 µM.
Compound `Nc1nc(NCc2ccccc2)nc(NCCO)c1[N+](=O)[O-]` gave a kinetic solubility of 43.4 µg/mL (≈ 143 µM).

On to `CS(=O)(=O)N1CCC(C(=O)Nc2cccc([N+](=O)[O-])c2)CC1`, for which the kinetic solubility is 44.3 µg/mL (≈ 135 µM). The result for `O=C(CSc1ncccn1)NCCC1=CCCCC1` reads over 41.6 µg/mL; that for `CCOc1ncccc1C(=O)Nc1nnc(C2CC2)s1`, over 43.6 µg/mL. In turn, `CC(=O)c1ccc(N2CCN(c3ncccn3)CC2)c([N+](=O)[O-])c1` registered a solubility (kinetic) of 39.2 µg/mL (≈ 120 µM). `Cc1cc(CNC(=O)Cc2ccccc2)c2ccccc2n1` returned a solubility (kinetic) of over 43.6 µg/mL. Regarding `CCCCCN1C(C)=CC(=C(C#N)C#N)C=C1C`, the kinetic solubility was determined as 3.3 µg/mL (≈ 13.7 µM). The result for `CC1=C(C)C(O)N(Cc2ccccc2)C1=O` (centres undefined) reads over 32.6 µg/mL. The result for `O=C(NNC(=S)NC(=O)c1cccs1)c1cccnc1` reads over 46 µg/mL. The result for `CCOc1ncccc1C(=O)OCc1ccc([N+](=O)[O-])cc1` reads 1.3 µg/mL (≈ 4.3 µM); that for `O=C(NCc1ccccc1CN1CCCC1)c1cc2ccccc2o1`, over 50.2 µg/mL; that for `N#Cc1cc([N+](=O)[O-])ccc1N1CCN(c2ccccc2O)CC1`, 2.4 µg/mL (≈ 7.4 µM). `CC1CCCCC1NC(=O)COC(=O)c1ccc2ccccc2n1` (centres undefined) had a solubility (kinetic) of 7.1 µg/mL (≈ 21.8 µM). The value for `COc1ccc(S(=O)(=O)N2CCOCC2)cc1NC(=O)CN(C)CC(=O)Nc1cccc(F)c1` was over 74.2 µg/mL; that for `O=C(CCCc1ccccc1)NCc1ccccc1Cl` was 32.9 µg/mL (≈ 114 µM); that for `CC1CC(C)CN(C(=O)c2ccc3nc[nH]c3c2)C1` (centres undefined) was over 38.6 µg/mL. The value for `Nc1cc(C(F)(F)F)cc([N+](=O)[O-])c1N` was over 33.2 µg/mL; that for `Cc1ccc(NS(=O)(=O)c2ccc(NC(=O)C3CC3)cc2)cc1C` was 6.9 µg/mL (≈ 20 µM); that for `Cc1ccsc1C(=O)NCCc1ccc(S(N)(=O)=O)cc1` was 32.8 µg/mL (≈ 101 µM).

Compound `CCCN(CC(=O)Nc1ccccc1OC)C(=O)c1nc2nc(C)ccn2n1` had a kinetic solubility of over 57.4 µg/mL. The result for `COC(=O)c1ccccc1NC(=O)Nc1ccc(C)cn1` reads over 42.8 µg/mL; that for `Cc1cc(C)c2c(=O)cc(C(F)(F)F)oc2n1`, 17.3 µg/mL (≈ 71.1 µM); that for `Cc1cccc(-c2noc(-c3ccc4c(c3)OCO4)n2)c1`, under 0.3 µg/mL. The result for `COP(=O)(OC)C(Nc1ccc(Cl)cc1)c1ccccc1` (centres undefined) reads over 48.9 µg/mL; that for `CCOc1ccc(CN(C)CC(=O)Nc2cccc(C)c2)cc1OC`, over 51.4 µg/mL. The compound `Cc1cc(OCCCCN2C(=O)NC(C)(C)C2=O)ccc1[N+](=O)[O-]` had a kinetic solubility of over 50.3 µg/mL. `Cc1cccc(Nc2ccc(C(=O)O)cc2[N+](=O)[O-])c1C` yielded a kinetic solubility of over 42.9 µg/mL. The result for `CCOc1ccc(NC(=O)CNC(=O)c2cccs2)cc1` reads 7.8 µg/mL (≈ 25.6 µM); that for `COc1ccc2c(c1)C1OCCC1C(c1ccco1)N2` (centres undefined), over 40.7 µg/mL; that for `Cc1cccc(NS(=O)(=O)c2ccc(C(C)(C)C)cc2)n1`, 42.7 µg/mL (≈ 140 µM).

`Cc1ccc(C)c(NC(=O)NC2CCCCCCC2)c1` displayed a kinetic solubility of under 0.3 µg/mL. The value for `O=c1c2ccccc2nc(-c2ccccc2)n1O` was over 35.7 µg/mL; that for `CCOC(=O)c1ccc(NC(=O)CCC(=O)NCc2ccco2)cc1` was 4.7 µg/mL (≈ 13.6 µM).

With `Cc1cc2ncn(C(=O)c3ccc(F)cc3)c2cc1C`, the solubility (kinetic) was found to be 21.6 µg/mL (≈ 80.5 µM). The value for `O=C(CCC(=O)c1cccs1)NC1CCCCCC1` was 25.6 µg/mL (≈ 91.6 µM); that for `CCn1cc(C(=O)NCc2ccco2)c(=O)c2ccc(C)nc21` was 2.4 µg/mL (≈ 7.71 µM).

Compound `CC(C)Oc1ccccc1/C=N/NC(=O)C1CC1` displayed a kinetic solubility of over 36.9 µg/mL. On to `O=C(c1ccc([N+](=O)[O-])cc1[N+](=O)[O-])N1CCCC1`, for which the kinetic solubility was over 39.8 µg/mL.

`C[C@H](NC(=O)C(c1ccccc1)c1ccccc1)c1ccccc1` showed a solubility (kinetic) of 8.5 µg/mL (≈ 26.9 µM). The value for `CCOC(=O)C1CCN(C(=O)COC(=O)C23CC4CC(CC(C4)C2)C3)CC1` was 50.7 µg/mL (≈ 134 µM).

As to `NC(=NC(=O)c1ccc(OCC(F)(F)F)nc1)c1ccccc1`, the solubility (kinetic) turned out to be 6.6 µg/mL (≈ 20.4 µM).

With `O=C1CN(C(=S)NC(=O)c2ccccc2[N+](=O)[O-])CCN1`, the kinetic solubility was over 46.2 µg/mL. The result for `O=C(c1ccccc1)C1CCN(C(=O)c2ccc(Cl)cc2)CC1` reads over 49.2 µg/mL. In the case of `Cc1ccc(CNC(=O)c2cc(=O)c3ccc(C)cc3o2)cc1`, the solubility (kinetic) is 2.6 µg/mL (≈ 8.46 µM).

`COCCn1c(N)c(N(Cc2ccccc2)C(=O)Cc2ccccc2F)c(=O)[nH]c1=O` yielded a solubility (kinetic) of 62.9 µg/mL (≈ 147 µM). The result for `Cc1ccc(Nc2c(-c3ccccc3)nc3cnccn23)cc1` reads 1.1 µg/mL (≈ 3.66 µM); that for `O=C1NC(=Nc2ccccc2)S/C1=C\c1ccccc1`, 0.8 µg/mL (≈ 2.85 µM); that for `Cc1ccc(C(=O)O)cc1NS(=O)(=O)c1ccc2c(c1)oc(=O)n2C`, 44.8 µg/mL (≈ 124 µM). The value for `CCn1c(/C=C/c2ccccc2F)nc2ccccc2c1=O` was 2.2 µg/mL (≈ 7.47 µM); that for `C=CCN1CCN(C(=O)c2oc3ccccc3c2C)CC1` was over 42.7 µg/mL; that for `O=C(NCCCn1ccnc1)/C(=C/c1ccco1)NC(=O)c1cccs1` was 50.1 µg/mL (≈ 135 µM). The result for `CC(C)CCSc1cc(NCCO)c([N+](=O)[O-])c2nonc12` reads 10 µg/mL (≈ 30.6 µM).

Compound `O=C(CCNC(=O)c1ccc([N+](=O)[O-])cc1)NCc1cccs1` displayed a kinetic solubility of over 50 µg/mL. In the case of `Cc1cccc(C(C)C)c1NS(=O)(=O)c1cn(C)nc1C`, the solubility (kinetic) is over 46.1 µg/mL.

On to `COc1ccc(CCNC(=O)/C=C/C(=O)O)cc1`, for which the solubility (kinetic) is over 37.4 µg/mL.

Compound `COc1cc2ncnc(NCc3ccc4c(c3)OCO4)c2cc1OC` yielded a kinetic solubility of 3.3 µg/mL (≈ 9.72 µM). The value for `COc1ccc(/C(C)=N/NC2=NCCN2)cc1Cl` was over 40 µg/mL; that for `O=C(CSc1nccc(=O)[nH]1)NCc1ccco1` was over 39.8 µg/mL; that for `CCC1(CC)N=C(c2ccccc2)C(=S)N1` was over 34.9 µg/mL. In the case of `Cc1ccc(NC(=O)C2CC(=O)N(C(C)C)C2)cc1C` (centres undefined), the kinetic solubility was over 41.2 µg/mL. The result for `Cc1cc(C(=O)c2cnc(/N=C/N(C)C)s2)c(F)cc1Cl` reads 13.6 µg/mL (≈ 41.7 µM); that for `COC(=O)c1c(C)nc(C)c(C(=O)OC)c1-c1cccs1`, over 45.8 µg/mL. For `O=C(/C=C/c1ccco1)N1CCN(S(=O)(=O)c2ccccc2)CC1`, the solubility (kinetic) is over 52 µg/mL. In turn, `CCS(=O)(=O)NCCNc1ccc([N+](=O)[O-])cc1` yielded a solubility (kinetic) of over 41 µg/mL. The value for `COc1ccc([N+](=O)[O-])c(OC)c1C(=O)NC(=O)Nc1c(C)cccc1C` was 0.9 µg/mL (≈ 2.41 µM); that for `Cc1c(Cl)cccc1NC(=S)NCCc1ccc(F)cc1` was 1.2 µg/mL (≈ 3.72 µM).

On to `Cc1ccc(NC(=O)C2CC2c2ccccc2)cc1` (centres undefined), for which the solubility (kinetic) is 2.4 µg/mL (≈ 9.55 µM).

The compound `Cl.Fc1ccccc1CNC1CN2CCC1CC2` (centres undefined) had a solubility (kinetic) of over 46.1 µg/mL.

The compound `Cc1cccc2sc(NC(=O)Cn3c(C)csc3=O)nc12` returned a solubility (kinetic) of 5.1 µg/mL (≈ 16 µM). In turn, `COc1ccc(N2C(=O)C(F)(F)C2c2cccc(F)c2)cc1` (centres undefined) showed a solubility (kinetic) of under 0.7 µg/mL.

`Cc1cnc(C(=O)Oc2cccc(Cl)c2Cl)cn1` gave a solubility (kinetic) of 35.4 µg/mL (≈ 125 µM). The value for `S=C(NCC1CCCO1)Nc1cccc(Cl)c1` (centres undefined) was over 40.6 µg/mL. In turn, `Cc1cc(NC(=O)CCl)no1` came in with a solubility (kinetic) of over 26.2 µg/mL. In turn, `OCc1cc(Br)ccc1OCc1nc2ccccc2s1` registered a solubility (kinetic) of under 0.8 µg/mL. The value for `Cc1ccc(CNC(=O)CNC(=O)c2ccc(Br)o2)cc1` was 14.6 µg/mL (≈ 41.6 µM). The result for `COc1ccc(-c2noc(CCC(=O)NCc3ccco3)n2)cc1` reads 39.7 µg/mL (≈ 121 µM). The value for `COc1ccc(N2CCN(CC(=O)c3ccc(Cl)cc3)CC2)cc1` was 45.7 µg/mL (≈ 133 µM); that for `O=C(c1ccc(=O)oc1)N1CCC(C(O)(c2ccccc2)c2ccccc2)CC1` was 57.3 µg/mL (≈ 147 µM); that for `Nc1nc(Cl)nc2c1ncn2[C@@H]1O[C@H](CO)[C@@H](O)[C@H]1O` was over 45.3 µg/mL. As for `Cc1ccc(NC(=O)C(C)C(=O)Nc2ccc(C)cc2)cc1`, the solubility (kinetic) stood at 1.5 µg/mL (≈ 5.06 µM).

`C=CCC(C(=O)OC)(C(=O)OC)c1ccccc1[N+](=O)[O-]` came in with a kinetic solubility of over 44 µg/mL. Compound `O=C(NC1=NCCS1)c1ccc(C(F)(F)F)cc1` yielded a solubility (kinetic) of 6.1 µg/mL (≈ 22.2 µM). `CCOc1ccc(CC(=O)N2CCN=C2SC)cc1` returned a solubility (kinetic) of over 41.8 µg/mL.

Take `CCOC(=O)c1[nH]cnc1C(=O)Nc1ccc(C)cc1`: the solubility (kinetic) came to 4.9 µg/mL (≈ 17.9 µM). The value for `O=C(Nc1ccc2ccccc2c1)c1cccc(F)c1` was 1.3 µg/mL (≈ 4.9 µM); that for `O=C(COC(=O)/C=C/c1cccc(F)c1)NC1CCCC1` was 7.8 µg/mL (≈ 26.8 µM); that for `CSc1ncccc1C(=O)OCC(=O)NC1CC1` was over 39.9 µg/mL. The result for `O=C(CCn1cnc2ccccc2c1=O)Nc1cccc(Cl)c1Cl` reads 3.8 µg/mL (≈ 10.5 µM). The result for `COc1ccc(CC(=O)Nc2cccc3ncccc23)cc1OC` reads over 48.4 µg/mL.

In turn, `COc1cccc(C(=O)NCC2(c3ccccc3)CCCC2)c1` had a solubility (kinetic) of 28.4 µg/mL (≈ 91.8 µM).

In turn, `O=C(Cc1cccs1)Nc1ccccc1F` yielded a kinetic solubility of over 35.3 µg/mL. The result for `CNC(=S)Nc1cc(C)ccc1OC(F)F` reads over 36.9 µg/mL; that for `COc1ccc(CN2CCC(Cc3ccccc3)CC2)c(C)c1C`, 17 µg/mL (≈ 52.6 µM). The value for `COc1ccccc1CN1CCc2c([nH]c3ccccc23)C1` was 33.1 µg/mL (≈ 113 µM); that for `CCCN(CCC)S(=O)(=O)c1ccc(C(=O)NCc2ccco2)cc1` was 12.7 µg/mL (≈ 34.8 µM); that for `NNC(=O)c1oc2ccccc2c1-n1cccc1` was over 36.2 µg/mL. As for `Cc1cc(Br)ccc1NC(=S)N1CCOCC1`, the solubility (kinetic) is over 47.3 µg/mL. The value for `O=C(Nc1ccnc(-c2cccnc2)n1)c1cccs1` was 2.9 µg/mL (≈ 10.3 µM).

`COC(=O)C1=C(C(=O)OC)SC(=C2C(=S)C(C)(C)N(C(=O)C(C)C)c3ccccc32)S1` yielded a kinetic solubility of under 1 µg/mL. For the compound `Cc1cc(C)c(S(=O)(=O)Nc2cc(C)on2)c(C)c1`, the kinetic solubility stood at 37.2 µg/mL (≈ 133 µM). The result for `O=C1CSC(c2cccnc2)N1CCc1ccccn1` (centres undefined) reads over 42.8 µg/mL. `O=[N+]([O-])c1cnc2ccccn12` had a kinetic solubility of 22.1 µg/mL (≈ 135 µM). `COc1ccc(CC(=O)NC(CC(=O)O)c2cccc([N+](=O)[O-])c2)cc1` (centres undefined) registered a kinetic solubility of over 53.8 µg/mL. The result for `COCC(=O)N1CCN(c2nc3ccccc3o2)CC1` reads over 41.3 µg/mL.
